Experimental data taken from US20020137929A1, “1 - (3-heterocyclylphenyl) isothiourea, -isourea, -guanidine and -amidine herbicidal agents” (Intellectual Property Department, BASF Aktiengesellschaft, priority 1998, published 2002).

Legend:
[1] = tested on: ECHORC (Watergrass (Calif.)); test: Postemergence weed control under flooded paddy conditions; assay type: in vivo, Echinochloa oryzoides; conditions: postemergence weeds, 3-4 weeks after treatment
Procedure, shortened: (§1)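 Containers holding 3–5 cm weeds and rice at 1.5–2.5 leaves are flooded to 1.5–3 cm above soil. Compound in 50/50 v/v aqueous/acetone is then added directly to the water, about 0.0313–0.500 kg/ha. Plants are kept in the greenhouse and rated 0–9 visually at 3–4 weeks.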

ZEAMX (Corn, Field) [2] = test: Preemergence herbicidal evaluation; assay type: in vivo, Zea mays; conditions: rated 4-5 weeks after treatment
Procedure, shortened: (§2)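 Scores (0–9) reflect visual comparison with control plants for stand, vigor, malformation, size and chlorosis. Compound was applied to the soil after sowing, before emergence, as an aqueous acetone spray (about 0.0156–0.500 kg/ha), and cups were kept in a greenhouse for 4–5 weeks.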

CYPSE (Flatsedge) [3] = test: Preemergence weed control under flooded paddy conditions; assay type: in vivo, Cyperus serotinus; conditions: rated 3-4 weeks after treatment
Procedure, shortened: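 Values are visual 0-9 scores against a control for a preemergence application into paddy flood water at about 0.0313 to 0.500 kg/ha. Greenhouse duration was three to four weeks.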

ZEAMX (Corn, Field) [4] = test: Postemergence herbicidal evaluation; assay type: in vivo, Zea mays
Procedure, shortened: (§3)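 Compound is applied as a foliar spray to seedlings about two weeks old, formulated in equal parts acetone and water with 0.5% TWEEN 20 and delivered at 40 psi to give about 0.0156–0.500 kg per hectare. Injury is rated visually 0–9 after four to five weeks.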

ECHCG (Barnyardgrass) = test: Preemergence herbicidal evaluation; assay type: in vivo, Echinochloa crus-galli; conditions: rated 4-5 weeks after treatment
Procedure, shortened: as §2

[5] = tested on: TRZAWR (Wheat, Winter, cv Riband); test: Preemergence herbicidal evaluation; assay type: in vivo, Triticum aestivum; conditions: rated 4-5 weeks after treatment
Procedure, shortened: as §2

[6] = tested on: SAGPY (Arrowhead (Pygmaea)); test: Postemergence weed control under flooded paddy conditions; assay type: in vivo, Sagittaria pygmaea; conditions: postemergence weeds, 3-4 weeks after treatment
Procedure, shortened: as §1

CYPIR (Rice Flatsedge) [7] = test: Preemergence weed control under flooded paddy conditions; assay type: in vivo, Cyperus iria; conditions: rated 3-4 weeks after treatment
Procedure, shortened: (§4)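 Flooded-pot preemergence screen with silt loam and seeds in the upper 0.5 cm. Dose about 0.0313 to 0.500 kg/ha, delivered into flood water; visual 0-9 score after 3 to 4 weeks.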

CYPSE (Flatsedge) [8] = test: Postemergence weed control under flooded paddy conditions; assay type: in vivo, Cyperus serotinus; conditions: postemergence weeds, 3-4 weeks after treatment
Procedure, shortened: as §1

CYPIR (Rice Flatsedge) [9] = test: as above; assay type: in vivo, Cyperus iria; conditions: postemergence weeds, 3-4 weeks after treatment
Procedure, shortened: as §1

[10] = tested on: ECHORC (Watergrass (Calif.)); test: Preemergence weed control under flooded paddy conditions; assay type: in vivo, Echinochloa oryzoides; conditions: rated 3-4 weeks after treatment
Procedure, shortened: as §4

SETVI (Foxtail, Green) [11] = test: Preemergence herbicidal evaluation; assay type: in vivo, Setaria viridis; conditions: rated 4-5 weeks after treatment
Procedure, shortened: as §2

ORYSAT (Rice, Tebonnet) = test: Postemergence herbicidal evaluation; assay type: in vivo, Oryza sativa, (L.) Tebonnet
Procedure, shortened: as §3

SETVI (Foxtail, Green) [12] = test: Postemergence herbicidal evaluation; assay type: in vivo, Setaria viridis
Procedure, shortened: as §3

## Cn1c(C(F)(F)F)cc(=O)n(-c2cc(N=C3SCC(=O)N3CC(=O)OC(C)(C)C)c(Cl)cc2F)c1=O [Compound 43, tert-Butyl 2-{{2-chloro-5-[3,6-dihydro-3-methyl-2,6-dioxo-4-(trifluoromethyl)-1(2H)-pyrimidinyl]-4-fluorophenyl}imino}-4-oxo-3-thiazolidineacetate]
[1]; rate 0.0313 kg/ha
  Herbicidal rating ECHORC: 5.0
[1]; rate 0.0825 kg/ha
  Herbicidal rating ECHORC: 6.0
[1]; rate 0.1250 kg/ha
  Herbicidal rating ECHORC: 7.0
[1]; rate 0.2500 kg/ha
  Herbicidal rating ECHORC: 9.0
ZEAMX (Corn, Field) [2]; rate 0.0156 kg/ha
  Preemergence herbicidal rating ZEAMX: 0.0
ZEAMX (Corn, Field) [2]; rate 0.0313 kg/ha
  Preemergence herbicidal rating ZEAMX: 0.0
ZEAMX (Corn, Field) [2]; rate 0.0625 kg/ha
  Preemergence herbicidal rating ZEAMX: 0.0
ZEAMX (Corn, Field) [2]; rate 0.1250 kg/ha
  Preemergence herbicidal rating ZEAMX: 3.0
ZEAMX (Corn, Field) [2]; rate 0.2500 kg/ha
  Preemergence herbicidal rating ZEAMX: 6.0
CYPSE (Flatsedge) [3]; 0.0313 kg/ha
  Herbicidal rating CYPSE: 5.0
CYPSE (Flatsedge) [3]; 0.0625 kg/ha
  Herbicidal rating CYPSE: 5.0
CYPSE (Flatsedge) [3]; 0.1250 kg/ha
  Herbicidal rating CYPSE: 8.0
CYPSE (Flatsedge) [3]; 0.2500 kg/ha
  Herbicidal rating CYPSE: 9.0
ZEAMX (Corn, Field) [4]; Rate 0.0158 kg/ha
  Postemergence herbicidal rating ZEAMX: 4.5
ZEAMX (Corn, Field) [4]; Rate 0.0315 kg/ha
  Postemergence herbicidal rating ZEAMX: 5.0
ZEAMX (Corn, Field) [4]; Rate 0.0630 kg/ha
  Postemergence herbicidal rating ZEAMX: 5.5
ECHCG (Barnyardgrass); rate 0.0156 kg/ha
  Preemergence herbicidal rating ECHCG: 0.0
ECHCG (Barnyardgrass); rate 0.0313 kg/ha
  Preemergence herbicidal rating ECHCG: 0.0
ECHCG (Barnyardgrass); rate 0.0625 kg/ha
  Preemergence herbicidal rating ECHCG: 0.0
ECHCG (Barnyardgrass); rate 0.1250 kg/ha
  Preemergence herbicidal rating ECHCG: 0.0
ECHCG (Barnyardgrass); rate 0.2500 kg/ha
  Preemergence herbicidal rating ECHCG: 5.0
[5]; rate 0.0156 kg/ha
  Preemergence herbicidal rating TRZAWR: 0.0
[5]; rate 0.0313 kg/ha
  Preemergence herbicidal rating TRZAWR: 0.0
[5]; rate 0.0625 kg/ha
  Preemergence herbicidal rating TRZAWR: 0.0
[5]; rate 0.1250 kg/ha
  Preemergence herbicidal rating TRZAWR: 1.0
[5]; rate 0.2500 kg/ha
  Preemergence herbicidal rating TRZAWR: 4.0
[6]; rate 0.0313 kg/ha
  Herbicidal rating SAGPY: 7.0
[6]; rate 0.0825 kg/ha
  Herbicidal rating SAGPY: 7.0
[6]; rate 0.1250 kg/ha
  Herbicidal rating SAGPY: 7.0
[6]; rate 0.2500 kg/ha
  Herbicidal rating SAGPY: 9.0
CYPIR (Rice Flatsedge) [7]; 0.0313 kg/ha
  Herbicidal rating CYPIR: 0.0
CYPIR (Rice Flatsedge) [7]; 0.0625 kg/ha
  Herbicidal rating CYPIR: 2.0
CYPIR (Rice Flatsedge) [7]; 0.1250 kg/ha
  Herbicidal rating CYPIR: 4.0
CYPIR (Rice Flatsedge) [7]; 0.2500 kg/ha
  Herbicidal rating CYPIR: 5.0
CYPSE (Flatsedge) [8]; rate 0.0313 kg/ha
  Herbicidal rating CYPSE: 5.0
CYPSE (Flatsedge) [8]; rate 0.1250 kg/ha
  Herbicidal rating CYPSE: 8.0
CYPSE (Flatsedge) [8]; rate 0.2500 kg/ha
  Herbicidal rating CYPSE: 9.0
CYPIR (Rice Flatsedge) [9]; rate 0.0313 kg/ha
  Herbicidal rating CYPIR: 0.0
CYPIR (Rice Flatsedge) [9]; rate 0.1250 kg/ha
  Herbicidal rating CYPIR: 4.0
CYPIR (Rice Flatsedge) [9]; rate 0.2500 kg/ha
  Herbicidal rating CYPIR: 5.0
[10]; 0.0313 kg/ha
  Herbicidal rating ECHORC: 5.0
[10]; 0.0625 kg/ha
  Herbicidal rating ECHORC: 6.0
[10]; 0.1250 kg/ha
  Herbicidal rating ECHORC: 7.0
[10]; 0.2500 kg/ha
  Herbicidal rating ECHORC: 9.0
SETVI (Foxtail, Green) [11]; rate 0.0156 kg/ha
  Preemergence herbicidal rating SETVI: 0.0
SETVI (Foxtail, Green) [11]; rate 0.0313 kg/ha
  Preemergence herbicidal rating SETVI: 0.0
SETVI (Foxtail, Green) [11]; rate 0.0625 kg/ha
  Preemergence herbicidal rating SETVI: 0.0
SETVI (Foxtail, Green) [11]; rate 0.1250 kg/ha
  Preemergence herbicidal rating SETVI: 5.0
SETVI (Foxtail, Green) [11]; rate 0.2500 kg/ha
  Preemergence herbicidal rating SETVI: 9.0
ORYSAT (Rice, Tebonnet); Rate 0.0158 kg/ha
  Postemergence herbicidal rating ORYSAT: 1.0
ORYSAT (Rice, Tebonnet); Rate 0.0315 kg/ha
  Postemergence herbicidal rating ORYSAT: 2.0
ORYSAT (Rice, Tebonnet); Rate 0.0630 kg/ha
  Postemergence herbicidal rating ORYSAT: 3.0
SETVI (Foxtail, Green) [12]; Rate 0.0158 kg/ha
  Postemergence herbicidal rating SETVI: 3.0
SETVI (Foxtail, Green) [12]; Rate 0.0315 kg/ha
  Postemergence herbicidal rating SETVI: 3.0
SETVI (Foxtail, Green) [12]; Rate 0.0630 kg/ha
  Postemergence herbicidal rating SETVI: 8.0
